In US20240325340A1, “ISOFORM SPECIFIC AGONISTS TARGETING AKT KINASE” (Thomas Jefferson University, priority 2021, published 2024):
“Also recorded” adds a separate entry of the source.

Assays:
Akt2-LT WT = target: T1, Akt2-LT WT (Homo sapiens, UniProt P31751); experiment: Phosphorylation of heterologously expressed Akt2-LT WT in H9C2 myoblasts; assay type: cell-based; conditions: serum-free media, 2 hr
T1 construct: expressed in transfected cells; host or cells: H9C2 myoblasts
Procedure: (§1) FIGS. 2A-2B: illustrate the finding that T625's position 6 analogues differentially activate Akt and induce cellular toxicity. FIG. 2A: To distinguish heterologous-expressed Akt from endogenous Akt, a 41 amino acid large tag containing the HA-epitope was fused with wild type Akt2 (Akt2-LT WT). H9C2 myoblasts over-expressing Akt2-LT WT were treated with insulin or indicated compounds in serum-free media for 2 hr. Phosphorylation of T309 and total Akt2 are shown. FIG. 2B: Cell images show A549 AT2 cell morphology after 24 hr of drug treatment.

A549 AT2 cell = A549 AT2 cell morphology after 24 hr of drug treatment; assay type: cell-based, human; conditions: A549 AT2 cells
Procedure: as §1

A549 cells = experiment: Cytotoxicity by release of lactate dehydrogenase (LDH) in A549 cells; assay type: cell-based, human; conditions: 40 μM, 24 hours, serum-free media
Procedure: Cytotoxicity was determined by the release of lactate dehydrogenase (LDH) into cell culture media. A549 cells were incubated with 40 μM of each compound for 24 hours in serum-free media (n=3 for each compound). FIG. 8B: A visual assessment of cell morphology after 24 hrs treatment with 40 μM of each compound in serum-free media. 100× images are shown.

Hacat cells [1] = experiment: Cellular toxicity / cell morphology in Hacat cells after 24 hrs; assay type: cell-based, human; conditions: 40 μM
Hacat cells [2] = experiment: Human keratinocyte migration (cell-free gap) assay; assay type: cell-based; conditions: 40 μM, 22 hr, serum-starved
Procedure: FIGS. 11A-11B illustrates the finding that Akt activators in human keratinocyte cell line induce VEGF secretion and enhanced cell migration. FIG. 11A: Human keratinocyte line, HaCat cells, was incubated with 20 μM of each Akt activators for 24 hours. Insulin (3.5 μg/ml) and IGF1 (100 ng/mL) treatment were used as positive control. […] HaCaT cells were plated into silicone insert molds with a […] defined cell-free gap (Ibidi) and serum-starved overnight. Then, the mold barrier was removed and cells were treated with 40 μM T620. After 22 hr, the gap spaces were imaged at 100×. Two images of control and four images of T620 treated gap spaces are shown.

Akt [3] = experiment: Mouse cardiac ischemia-reperfusion injury model, Akt activation in heart; assay type: in vivo; conditions: directly injected or intraperitoneally injected after ischemic-ligation
Procedure: FIG. 13A: A schematic of ischemic-reperfusion procedure indicating drug injection time and heart harvest time. FIG. 13B: Illustrates immunoblots of pS473, Akt phospho-substrate, pPRAS40 and GAPDH in the WES auto-western system. After ischemic-ligation, T625 (0.8 μg in 20 μl PBS) were directly injected at three spots of exposed ventricular wall. Injected insulin was used as a control. FIG. 13C: Illustrates immunoblots of pT308, total Akt (tAkt) and GAPDH and quantified pT308/tAkt ratio. After ischemic-ligation, T620 and T625 were directly injected or intraperitoneally injected.
(§2) A FlexiVent system (SCIREQ) was used to deliver Akt activator, T625, directly to mouse lung. This procedure closely mimics the clinical application of inhaled insulin. […] Akt activators were also administered in the setting of mouse cardiac ischemia-reperfusion injury model (FIGS. 13A-13C). T625 was directly injected into the left ventricular free wall at the time of ischemic ligation of exteriorized heart. Also, to mimic clinical use, (IP) Akt activators were intraperitoneally injected within 10 min after ischemia initiation. It was shown that both directly applied and intraperitoneally injected Akt activators activated Akt in the heart. Finally, a splinted murine excisional wound model that mimic human wound healing was used. […]

Akt [4] = experiment: Splinted murine excisional skin wound model, topical treatment; assay type: in vivo, mouse; conditions: 20 μL of 40 μM applied within the wound silicone circle, 20 min
Procedure: FIGS. 14A-14B illustrate the use of an Akt activator as topical treatment for healing mouse skin wound. […] 20 μL of indicated compounds were applied within the skin wound silicone circle for 20 min. Wound tissues were harvested and blotted with anti-Akt pS473 and GAPDH using the Proteinsimple WES system. Growth factor (GF) mixture (insulin, PDGF and IGF1 growth factor) or 40 μM T620 in corn oil or in PBS as vehicles. […] Images of WT mouse skin wound after vehicle (0.7% DMSO in PBS) or 40 μM T620 treatment at Day 3. Wound images and hematoxylin sections showing wound edge and wound bed are shown. Scale bar=400 μm.
as §2

cells = experiment: Cellular toxicity (cells not specified); assay type: cell-based
recombinant pAkt1 = recombinant pAkt1 (Homo sapiens, UniProt P31749); experiment: Recombinant phospho-Akt dephosphorylation by PP2A or total cellular phosphatase extracts (immunoblot pT308); assay type: biochemical; conditions: 60 μM compound, 30 minutes at 30° C.
Chain of recombinant pAkt1 (P31749 whole entry): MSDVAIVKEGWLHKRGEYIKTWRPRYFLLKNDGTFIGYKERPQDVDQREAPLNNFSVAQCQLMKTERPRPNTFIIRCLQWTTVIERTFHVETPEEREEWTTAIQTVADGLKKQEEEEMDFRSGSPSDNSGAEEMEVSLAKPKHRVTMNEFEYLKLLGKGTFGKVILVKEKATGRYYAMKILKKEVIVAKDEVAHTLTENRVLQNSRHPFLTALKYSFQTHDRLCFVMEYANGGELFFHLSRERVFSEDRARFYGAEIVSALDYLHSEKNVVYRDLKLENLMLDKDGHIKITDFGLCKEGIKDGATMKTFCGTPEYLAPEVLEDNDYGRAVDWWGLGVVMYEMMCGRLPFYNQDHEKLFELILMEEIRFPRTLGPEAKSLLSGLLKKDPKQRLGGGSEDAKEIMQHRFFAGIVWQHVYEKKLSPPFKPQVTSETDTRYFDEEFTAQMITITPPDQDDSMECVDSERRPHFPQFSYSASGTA
Procedure: FIG. 1A: Recombinant phospho-Akt (50 ng) were pre-mixed with DMSO or with 40 μM 4H-Chromenes with carboxylate side chain (SC-79 and HA-14) or with 60 μM malononitrile side chain (T625) at 4° C. Then recombinant PP2A (70 ng PP2A-C) or total cellular phosphatase extracts were added and incubated for 30 minutes at 30° C. After incubation, protein extracts were subjected to immunoblot analysis using antibodies detecting phosphorylated Akt (T308), total Akt and PP2A catalytic subunit. FIG. 1B comprises a graph showing the percentage of Akt dephosphorylation at 30 minutes (Dephos. %) (n=6) *P<0.01 vs. DMSO.

[5] = tested on: E17-Y18-I19 and R23-R25 mutated Akt kinase (Akt1-LT); experiment: pT308 phosphorylation of mutated Akt1-LT constructs in H9C2 cells; assay type: cell-based; conditions: 2 μM insulin 15 minutes
Text: FIGS. 3A-3D: illustrate a model of T625 C-6 interaction space within the Akt PH domain and biochemical validation of the model. FIG. 3A: Model of the Akt2 PH-domain bound to T625 where all residue numbering corresponds to the Akt2 sequence. The C-6 Cl group act as the most optimal structural mimetic of the phosphate's electrostatic interactions with Arg23 and surrounding residues. […] To distinguish heterologous-expressed Akt from endogenous Akt, a 41 amino acid large tag containing the HA-epitope was fused with Akt1 (Akt1-LT) and specific mutations were created by site-directed mutagenesis. H9C2 cells expressing the indicated mutant constructs were stimulated for 15 minutes with 2 μM insulin, then switch to serum-free medium with 30 μM T625 as indicated for 60 minutes. […] H9C2 cells expressing the indicated mutant constructs were stimulated for 15 minutes with 2 μM insulin, then switch to serum-free medium with 20 μM T625 as indicated for 90 minutes. Phosphorylation of T308 in Akt1-LT and endogenous Akt, HA and GAPDH loading control blots are shown. FIG. 3D: Graph of specific pT308 phosphorylation in the indicated Akt1-LT constructs with or without T625 treatment. N is indicated.

Akt [6] = experiment: Ceramide and cathepsin G blockade of insulin activation of Akt in H9C2 myoblasts; assay type: cell-based; conditions: H9C2 myoblasts, 30 μM T625 with insulin, 30 minutes
Procedure: (§3) H9C2 myoblasts or neonatal rat myocytes were treated with neutrophil protease Cathepsin G (0.01 U/mL), 4 hr or with 100 μM C2-Ceramide (100 μM), 2 hr. Then cells were stimulated with insulin with or without 30 μM T625 for 30 minutes. Lysates were immunoblotted with the indicated antibodies.

Akt [7] = experiment: Ceramide and cathepsin G blockade of insulin activation of Akt in neonatal rat myocytes; assay type: cell-based; conditions: 30 μM T625 with insulin, 30 minutes
Procedure: as §3

Akt [8] = experiment: Aerosolized inhalation (FlexiVent) Akt activation in mouse lung; assay type: in vivo
Procedure: 8 week old (wk) wild type mice were deprived of food overnight. Anesthetized mice were intubated on the FlexiVent system and challenged with aerosolized inhaled insulin or T625 as indicated. Lung tissue was harvested 20 minutes after drug inhalation. Extracts were immunoblotted with indicated antibodies.
A FlexiVent system (SCIREQ) was used to deliver Akt activator, T625, directly to mouse lung. This procedure closely mimics the clinical application of inhaled insulin. […] Akt activators were also administered in the setting of mouse cardiac ischemia-reperfusion injury model (FIGS. 13A-13C). T625 was directly injected into the left ventricular free wall at the time of ischemic ligation of exteriorized heart. Also, to mimic clinical use, (IP) Akt activators were intraperitoneally injected within 10 min after ischemia initiation. It was shown that both directly applied and intraperitoneally injected Akt activators activated Akt in the heart. Finally, a splinted murine excisional wound model that mimic human wound healing was used. Akt activators were placed directly into the wound ring, mimicking the clinical topical application of growth factors.

Compound stability = assay type: physicochemical

T1 sequence (P31751 whole entry): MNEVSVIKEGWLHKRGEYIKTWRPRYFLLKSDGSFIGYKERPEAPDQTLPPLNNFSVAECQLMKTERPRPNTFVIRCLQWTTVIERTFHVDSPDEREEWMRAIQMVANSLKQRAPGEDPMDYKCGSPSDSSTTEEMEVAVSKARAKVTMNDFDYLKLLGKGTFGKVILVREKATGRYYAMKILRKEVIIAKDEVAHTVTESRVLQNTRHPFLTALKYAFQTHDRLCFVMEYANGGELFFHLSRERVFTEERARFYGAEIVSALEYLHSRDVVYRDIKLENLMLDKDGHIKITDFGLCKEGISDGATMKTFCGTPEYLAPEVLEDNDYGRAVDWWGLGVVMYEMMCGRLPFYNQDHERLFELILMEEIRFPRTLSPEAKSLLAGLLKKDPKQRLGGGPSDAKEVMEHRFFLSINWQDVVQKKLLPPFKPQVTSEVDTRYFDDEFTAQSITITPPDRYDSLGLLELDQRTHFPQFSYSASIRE

| SMILES | Akt activation in cells (phosphorylation of T309 of Akt2-LT WT) (Akt2-LT WT) | cellular toxicity (cell morphology) (A549 AT2 cell) | cellular toxicity (LDH release) (A549 cells) | cellular toxicity (Hacat cells [1]) | keratinocyte migration (Hacat cells [2]) | Akt activation in mouse heart during ischemia-reperfusion (Akt [3]) | Akt activation (pS473) within mouse skin wounds (Akt [4]) | cellular toxicity (cells) | block of recombinant pAkt1 dephosphorylation by PP2A and cellular phosphatases (recombinant pAkt1) | effect on phosphorylation of mutated Akt kinase ([5]; E17-Y18-I19 and R23-R25 mutants, then 30 μM T625 60 minutes) | effect on phosphorylation of mutated Akt kinase ([5]; mutations in E17 and/or 119, then 20 μM T625 90 minutes) | rescue of ceramide and cathepsin G blockade of Akt activation by insulin (Akt [6]) | rescue of ceramide and cathepsin G blockade of Akt activation by insulin (Akt [7]) | Akt kinase activation in mouse lung (Akt [8]; 60 μg, delivered directly to mouse lung by FlexiVent) | insulin sensitivity in vivo (Akt [8]; aerosolized inhaled, lung tissue harvested 20 minutes after inhalation) | Akt activation in mouse lung tissue in combination with insulin (Akt [8]; suboptimal dose 15 μg with suboptimal insulin dose 5 μg) | compound stability (Compound stability) |
| --- | --- | --- | --- | --- | --- | --- | --- | --- | --- | --- | --- | --- | --- | --- | --- | --- | --- |
| N#CC1=C(N)Oc2ccc([N+](=O)[O-])cc2C1C(C#N)C#N (centres unmarked) [T620, 2-(2-amino-3-cyano-6-nitro-4H-chromen-4-yl)propanedinitrile] | preserved Akt activation; also recorded: activate Akt | greatly reduced toxicity | low toxicity; also recorded: failed to show significant cellular toxicity; also recorded: reduced cellular toxicity | failed to show significant cellular toxicity | enhance human keratinocyte migration | enhanced Akt activation in mouse heart | activated Akt within mouse skin wounds | reduced toxicity | – | – | – | – | – | – | – | – | – |
| N#CC1=C(N)Oc2ccc(Cl)cc2C1C(C#N)C#N (centres unmarked) [T625, 2-(2-amino-6-chloro-3-cyano-4H-chromen-4-yl)propanedinitrile] | retaining Akt activation; also recorded: activate Akt | – | – | – | – | enhanced Akt activation in mouse heart | – | dramatically reduced cellular toxicity | block recombinant pAkt1 dephosphorylation by PP2A and cellular phosphatases | acts as an inhibitor | converting the T625 response from activation to inhibition | rescues ceramide and cathepsin G blockade of Akt activation | rescues ceramide and cathepsin G blockade of Akt activation | retaining Akt activation; also recorded: robustly activated Akt kinase in mouse lung | enhanced insulin sensitivity | cooperated with suboptimal insulin dose (5 μg) to activate Akt in mouse lung tissue | enhanced compound stability |
